Data from ChEMBL document CHEMBL1201862, “PubChem BioAssay data set” (2004).
Activity calls are given as the source filed them.

Tests used:
[1] = Luminescence Cell-Based Dose Retest to Confirm Inhibitors of Cancer Stem Cells. [Related pubchem assays (depositor defined):AID2717, AID2721]; format: functional; settings: Homo sapiens
INS1 = experiment: INS-1E survival protection against cytokine death – cell-based, luminescence, retest, dose response (AID 449756); format: functional; settings: Rattus norvegicus;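 further: cell death triggered by IL-1 beta plus TNF-alpha plus IFN-gamma mixture; protective hits raise ATP signal compared with cytokine alone wells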
[2] = Luminescence Cell-Based Dose Confirmation HTS to Identify Inhibitors of Platelet Dense Granule Release. [Related pubchem assays: 1663 (Primary HTS), 1678 (Summary of Project)]; format: functional
[3] = target: Luciferin 4-monooxygenase (Photinus pyralis, UniProt P08659); experiment: inhibition of purified Photinus pyralis luciferase – biochemical, luminescence, dose response (AID 1891)
Luciferin 4-monooxygenase, sequence (P08659 whole entry): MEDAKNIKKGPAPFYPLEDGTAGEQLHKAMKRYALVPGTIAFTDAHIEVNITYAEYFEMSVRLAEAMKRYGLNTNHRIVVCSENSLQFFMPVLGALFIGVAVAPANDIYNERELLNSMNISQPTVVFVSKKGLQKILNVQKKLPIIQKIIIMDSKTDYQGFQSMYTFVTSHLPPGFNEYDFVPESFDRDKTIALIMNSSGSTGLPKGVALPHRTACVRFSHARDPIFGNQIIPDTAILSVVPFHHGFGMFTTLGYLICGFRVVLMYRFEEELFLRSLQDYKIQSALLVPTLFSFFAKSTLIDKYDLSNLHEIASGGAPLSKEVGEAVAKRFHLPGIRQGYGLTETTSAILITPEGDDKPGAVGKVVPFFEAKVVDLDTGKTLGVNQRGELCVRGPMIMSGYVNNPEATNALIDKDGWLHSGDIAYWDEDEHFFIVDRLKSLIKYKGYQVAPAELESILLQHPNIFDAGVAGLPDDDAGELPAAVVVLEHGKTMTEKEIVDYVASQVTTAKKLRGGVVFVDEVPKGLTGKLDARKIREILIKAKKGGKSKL

Paired box protein Pax-8 = Paired box protein Pax-8 (Homo sapiens, UniProt Q06710); experiment: PAX8 transcriptional activity inhibition in RMG-I – RMG-I cells, luciferase, cherry-pick, dose response (AID 687027); format: functional, cell-based;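 further: luciferase reporter driven by Pax8 target thyroperoxidase promoter measured by SteadyGlo luminescence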
Paired box protein Pax-8, sequence (Q06710 whole entry): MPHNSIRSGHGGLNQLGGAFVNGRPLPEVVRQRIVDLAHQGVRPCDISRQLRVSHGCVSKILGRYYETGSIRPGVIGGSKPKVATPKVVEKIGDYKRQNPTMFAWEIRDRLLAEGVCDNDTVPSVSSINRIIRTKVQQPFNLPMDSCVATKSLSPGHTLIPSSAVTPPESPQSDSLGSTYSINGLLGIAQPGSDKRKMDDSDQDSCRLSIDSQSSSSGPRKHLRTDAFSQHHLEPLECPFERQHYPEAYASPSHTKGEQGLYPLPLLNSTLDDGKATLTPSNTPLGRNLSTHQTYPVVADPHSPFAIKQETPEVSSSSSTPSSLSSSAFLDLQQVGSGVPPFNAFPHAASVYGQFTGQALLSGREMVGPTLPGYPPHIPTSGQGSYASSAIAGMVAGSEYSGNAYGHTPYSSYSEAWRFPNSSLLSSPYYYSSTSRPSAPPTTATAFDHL

Protein skinhead-1 = target: T1, Protein skinhead-1 (Caenorhabditis elegans, UniProt P34707); format: functional
T1 sequence (P34707 whole entry): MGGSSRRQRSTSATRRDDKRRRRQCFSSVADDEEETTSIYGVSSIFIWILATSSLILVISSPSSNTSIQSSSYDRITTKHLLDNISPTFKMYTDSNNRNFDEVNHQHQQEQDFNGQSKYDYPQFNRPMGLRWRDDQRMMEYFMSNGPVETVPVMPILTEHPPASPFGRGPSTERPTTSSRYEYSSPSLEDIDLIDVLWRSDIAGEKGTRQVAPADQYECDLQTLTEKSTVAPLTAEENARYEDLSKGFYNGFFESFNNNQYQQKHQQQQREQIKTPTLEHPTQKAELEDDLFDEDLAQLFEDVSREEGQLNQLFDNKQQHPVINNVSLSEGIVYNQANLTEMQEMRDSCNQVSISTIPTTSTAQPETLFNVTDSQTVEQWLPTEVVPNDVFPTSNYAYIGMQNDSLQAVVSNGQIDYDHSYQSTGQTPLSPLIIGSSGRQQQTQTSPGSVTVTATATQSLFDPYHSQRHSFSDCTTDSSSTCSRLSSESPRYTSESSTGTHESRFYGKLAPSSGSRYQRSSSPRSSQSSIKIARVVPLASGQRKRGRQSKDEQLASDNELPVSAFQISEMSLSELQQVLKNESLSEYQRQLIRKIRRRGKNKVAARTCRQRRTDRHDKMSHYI

[4] = target: Heat shock protein HSP 90-alpha (Homo sapiens, UniProt P07900); format: functional, organism-based
H9c2 = experiment: cells; format: functional, cell-based; settings: Rattus norvegicus, H9c2, Myocardium;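 further: confirmatory concentration-response retest of ultra-high-throughput screening hits for modulation of myocardial damage; cell death induced by hydrogen peroxide oxidative stress; compound pretreatment for 60 min then peroxide exposure for 2 h; potency is for protecting the cells against peroxide damage rather than for killing them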
[5] = Luminescence Cell-Based Dose Confirmation HTS to Identify Activators of 5'UTR Stem-Loop Driven Alpha-Synuclein mRNA Translation in H4 Neuroglioblastoma Cells. [Related pubchem assays: 1829 (Project Summary), 1814 (Primary HTS)]; format: functional
[6] = Luminescence Cell-Based Dose Response HTS to Identify Activators of Luciferase Translation or Activity in H4 […] Cells. [Related pubchem assays: 1829 (Project Summary), 1814 (Primary HTS)]; format: functional
H4 = experiment: Luminescence Cell-Based Dose Response HTS to Identify Activators of 5'UTR Stem-Loop Driven Prion Protein mRNA Translation in H4 Neuroglioblastoma Cells. [Related pubchem assays: 1829 (Project Summary), 1814 (Primary HTS)]; format: functional; settings: Homo sapiens
[7] = fluconazole-exposed Candida albicans growth modulators – fluorescence, retest, confirmation (AID 2467); format: functional, cell-based
[8] = NIH-3T3 fibroblast cytotoxicity, dose response, cytotoxicity control, cell-based, fluorescence, Alamar Blue, secondary assay (AID 2327); format: functional;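 further: NIH-3T3 mouse fibroblasts cultured with fluconazole at 8 µg/mL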
[9] = P. falciparum Dd2 growth inhibitors, dose response, SYBR Green, cherry-picked samples (AID 1159567); format: functional, cell-based

With C/C(N)=C(/C#N)C(=O)COC(=O)c1cc(-c2ccc(C)cc2)nc2ccccc12 the AC50 [1] was 17.4 µM (active) and the AC50 (INS1) was > 260 µM (inactive).

In the case of CCOc1ccccc1CNS(=O)(=O)c1c[nH]cn1, the EC50 [2] is reported as > 112 µM (not active) and the EC50 [3] is reported as > 112 µM (not active).

With CC1=CS/C(=C(/C#N)C(=O)N2CCOCC2)N1c1ccccc1 the EC50 [2] was > 112 µM (not active) and the EC50 [3] was > 112 µM (not active).

For Cc1ccc(S(=O)(=O)Nc2ccc3c(c2)C(=O)N([C@@H](C)CO)C[C@@H](C)[C@H](CN(C)Cc2ccc(Cl)c(Cl)c2)OCCCC[C@@H](C)O3)cc1, the AC50 (Paired box protein Pax-8) was 7.92 µM (active).

With Cc1ccc(O)c(-c2cc(-c3cccc(F)c3)[nH]n2)c1 the IC50 (Protein skinhead-1) was > 100 µM (inactive) and the AC50 [4] was 25.4 µM (active).

For COC(=O)c1ccc(Cn2nnc3c(O)nc(C4CCCN(S(=O)(=O)c5ccccc5)C4)nc32)cc1 (centres undefined), the IC50 (H9c2) was 18.3 µM (active).

With CSC1=NN=C(c2ccc(C(C)(C)C)cc2)NN1 the EC50 [5] was 15.2 µM (active), the EC50 [6] was 36.5 µM (active) and the EC50 (H4) was 16.9 µM (active).

For CCc1nnc(NC(=O)CCC(=O)N2CCN(C3c4ccccc4-c4ccccc43)CC2)s1, the IC50 (H9c2) was 17.4 µM (active).

With O=C(CSC1=NCCS1)N1CCc2ccccc21 the EC50 [5] was 10.7 µM (active), the EC50 [6] was 45.7 µM (active) and the EC50 (H4) was 15.4 µM (active).

With O=C(CCS(=O)(=O)c1ccccc1)Nc1ncc([N+](=O)[O-])s1 the EC50 [7] was 0.746 µM (active) and the EC50 [8] was > 150 µM (inactive).

In the case of CCn1cc(C(=O)N[C@@H](CCSC)C(=O)NCCCn2ccnc2)c(=O)c2cc3c(cc21)OCO3, the EC50 [2] is reported as > 112 µM (not active) and the EC50 [3] is reported as > 112 µM (not active).

For O=C(NCc1cccnc1)C(=O)NCC1OCCN1S(=O)(=O)c1ccccc1 (centres undefined), the EC50 [2] was > 112 µM (not active) and the EC50 [3] was > 112 µM (not active).

With CCC1(c2ccc(Cl)cc2)N=C(S)N(c2ccc(C)cc2)N1 (centres undefined) the EC50 [5] was 19.1 µM (active), the EC50 [6] was 11.2 µM (active) and the EC50 (H4) was 14.7 µM (inconclusive).

In the case of O=C1Cc2ccccc2Sc2ccc(Cl)cc21, the EC50 [2] is reported as > 112 µM (not active) and the EC50 [3] is reported as > 112 µM (not active).

For CCOC(=O)C1=c2s/c(=C\c3ccncc3)c(=O)n2C(N)=C(C(=O)OC)C1c1ccncc1 (centres undefined), the IC50 (H9c2) was > 79 µM (inactive).

In the case of Cc1ccc(/N=C/c2cc(Cl)cc(Cl)c2O)nc1, the IC50 (H9c2) is reported as 13.5 µM (active).

With O=C(Cn1c(S)nc2ccccc21)c1ccccc1 the EC50 [2] was > 112 µM (not active) and the EC50 [3] was > 112 µM (not active).

In the case of COc1ccccc1NC(=O)c1c(Nc2ccccc2F)sc(C(=O)Nc2cccc(Cl)c2)c1N, the AC50 [1] is reported as 1.16 µM (active).

In the case of COc1ccc(-c2nnc3sc(-c4ccco4)nn23)cc1OC, the IC50 (H9c2) is reported as > 79 µM (inactive).

For COC(=O)c1ccc2c(O)nc(COC(=O)c3[nH]c(C)c(C(C)=O)c3C)nc2c1, the IC50 (H9c2) was 7.05 µM (active).

With C[C@@H](C(=O)N(C)C[C@@H]1OCc2ccccc2-c2c(n(C)c3ccccc23)C(=O)N([C@@H](C)CO)C[C@@H]1C)c1ccccc1 the AC50 [9] was 6.3 µM (active).

With COC(=O)c1cnn2c(O)c(Cc3ccc(F)cc3Cl)c(C)nc12 the EC50 [7] was 1.33 µM (active) and the EC50 [8] was > 150 µM (inactive).

For COc1ccc(N(CC(=O)Nc2ccc3c(c2)OCO3)S(=O)(=O)c2ccccc2)c(OC)c1, the IC50 (H9c2) was > 79 µM (inactive).
